This is an account of results in US5604231A, “Pharmaceutical compositions for prevention and treatment of ulcerative colitis” (priority 1995, dated 1997).

For experiment [1] the following is noted: in words; literature; cited from earlier work.
Experiment [2] has as its target T1, muscle-like nicotinic receptors (TE671/RD) (Homo sapiens, UniProt P02708+P07510+P11230+Q07001).
T1 construct: these cells express muscle-like nicotinic receptors; endogenous in cells; host or cells: TE671/RD (human embryonal rhabdomyosarcoma)
As to the kind of experiment: cell-based. The note with it: for Emax: TE671/RD, read-out: Muscle Effect (% nicotine).

Another experiment concerns the target nicotinic receptors. Description: Determination of binding of compounds to relevant receptor sites (inhibition of L-[3H]nicotine binding, brain membrane preparations). On the set-up: species or system rat (Sprague-Dawley).
The conditions of experiment [3]: in words; some patients; cited from earlier work.
The test system of experiment [4] is IL-2; memory; neurotransmitter release in the CNS. The following applies: in words; literature; cited from earlier work.
The conditions of experiment [5]: in words; literature; cited from earlier work. This is another data set of the same source.

The Ki is a dissociation constant, usually derived from enzyme kinetics or from competition with a known ligand. Read a low Ki as higher affinity.

T1 sequence (P02708 21-457): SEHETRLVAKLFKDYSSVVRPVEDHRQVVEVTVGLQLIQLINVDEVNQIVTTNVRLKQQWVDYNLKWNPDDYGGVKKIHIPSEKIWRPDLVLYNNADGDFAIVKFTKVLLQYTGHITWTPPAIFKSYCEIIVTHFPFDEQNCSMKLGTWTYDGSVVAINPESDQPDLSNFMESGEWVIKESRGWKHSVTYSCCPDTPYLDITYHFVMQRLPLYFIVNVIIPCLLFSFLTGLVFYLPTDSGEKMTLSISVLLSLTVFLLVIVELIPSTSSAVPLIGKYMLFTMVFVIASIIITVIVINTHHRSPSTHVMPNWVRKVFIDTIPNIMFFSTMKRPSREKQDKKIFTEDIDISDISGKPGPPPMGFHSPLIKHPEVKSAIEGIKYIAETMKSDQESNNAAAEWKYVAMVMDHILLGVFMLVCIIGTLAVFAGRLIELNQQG
T1 sequence (Q07001 22-517): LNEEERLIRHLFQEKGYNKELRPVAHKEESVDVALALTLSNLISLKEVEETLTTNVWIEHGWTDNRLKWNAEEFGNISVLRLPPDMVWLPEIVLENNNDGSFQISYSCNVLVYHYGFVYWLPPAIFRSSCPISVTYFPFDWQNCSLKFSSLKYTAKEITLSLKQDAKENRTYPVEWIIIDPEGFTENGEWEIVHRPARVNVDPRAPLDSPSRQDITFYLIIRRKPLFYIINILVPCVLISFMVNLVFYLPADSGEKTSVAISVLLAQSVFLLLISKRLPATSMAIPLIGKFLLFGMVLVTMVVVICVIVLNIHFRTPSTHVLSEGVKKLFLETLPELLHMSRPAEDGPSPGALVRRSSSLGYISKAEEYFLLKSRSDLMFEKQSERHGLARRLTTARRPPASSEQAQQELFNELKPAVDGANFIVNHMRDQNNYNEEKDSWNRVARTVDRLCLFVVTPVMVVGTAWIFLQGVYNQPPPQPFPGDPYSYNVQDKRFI
T1 sequence (P07510 23-517): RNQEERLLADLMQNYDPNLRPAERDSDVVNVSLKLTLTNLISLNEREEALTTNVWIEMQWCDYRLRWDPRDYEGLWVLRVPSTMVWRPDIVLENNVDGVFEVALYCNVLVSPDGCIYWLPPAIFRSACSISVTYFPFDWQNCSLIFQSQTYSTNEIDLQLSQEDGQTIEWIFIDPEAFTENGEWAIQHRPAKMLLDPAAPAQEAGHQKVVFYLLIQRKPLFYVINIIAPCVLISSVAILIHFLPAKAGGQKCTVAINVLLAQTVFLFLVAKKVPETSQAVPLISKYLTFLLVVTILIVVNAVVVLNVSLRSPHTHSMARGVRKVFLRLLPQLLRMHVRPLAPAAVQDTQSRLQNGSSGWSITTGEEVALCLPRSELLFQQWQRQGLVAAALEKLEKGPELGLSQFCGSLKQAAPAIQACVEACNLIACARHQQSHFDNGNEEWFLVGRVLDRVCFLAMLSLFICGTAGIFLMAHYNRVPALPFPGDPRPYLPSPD
T1 sequence (P11230 24-501): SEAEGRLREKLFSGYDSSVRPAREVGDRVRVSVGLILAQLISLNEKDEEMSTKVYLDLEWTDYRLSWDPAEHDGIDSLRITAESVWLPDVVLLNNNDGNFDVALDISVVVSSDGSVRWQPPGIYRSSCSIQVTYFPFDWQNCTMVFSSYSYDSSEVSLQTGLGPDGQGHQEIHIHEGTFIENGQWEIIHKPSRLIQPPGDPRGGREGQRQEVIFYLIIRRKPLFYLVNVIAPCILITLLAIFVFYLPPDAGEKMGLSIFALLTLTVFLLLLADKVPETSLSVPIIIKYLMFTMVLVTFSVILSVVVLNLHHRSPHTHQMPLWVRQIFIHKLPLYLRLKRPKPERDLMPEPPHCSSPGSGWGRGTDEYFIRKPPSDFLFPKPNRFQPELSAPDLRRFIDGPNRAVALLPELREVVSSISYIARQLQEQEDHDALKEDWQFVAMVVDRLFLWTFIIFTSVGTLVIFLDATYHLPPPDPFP

Consider `CN1CCC[C@H]1c1cccnc1` [C-1, (S)-(-)-nicotine], for which the “treatment of various CNS disorders” value in experiment [1] is listed as “positive effect towards the treatment of various CNS disorders”.
Take `CNCC/C=C/c1cncnc1` [Sample No. 2, (E)-N-methyl-4-(5-pyrimidinyl)-3-butene-1-amine]: the Emax in experiment [2] is 4%.
With `COc1cncc(/C=C/CCN)c1` [Sample No. 3, (E)-4-[3-(5-methoxypyridin)yl]-3-butene-1-amine monofumarate], the Emax in experiment [2] turned out to be 0%.
At nicotinic receptors, `CNCCC#Cc1cccnc1` [Sample No. 4, N-Methyl-4-(3-pyridinyl)-3-butyne-1-amine] gave a Ki of 58 nM. For the same compound, the Emax in experiment [2] came to 7%.
`CNCC/C=C/c1ccc(C)nc1` [Sample No. 6, (E)-N-methyl-4-[3-(6-methylpyridin)yl]-3-butene-1-amine]: the Emax in experiment [2] was 2%.
Consider `CNCCCCc1cccnc1` [Sample No. 7, N-methyl-(3-pyridinyl)-butane-1-amine], for which, in experiment [2], the Emax came to 0%.
In the case of `CNCC/C=C/c1cccnc1` [Sample No. 8, (E)-metanicotine], the “Muscle Effect (% nicotine)” value in experiment [2] (te671/rd cells) stood at 15 % nicotine.
As for `Nc1ccc(O)c(C(=O)O)c1` [mesalamine], in experiment [3], the “effectiveness in treatment of acute UC” value is listed as “effective to some degree in some patients”.
`CN1CCCC1c1cccnc1` (centres unmarked) [nicotine]: in experiment [4], the effects upon memory entry was “positive effects upon memory”, the “neurotransmitter release in the CNS” value was “induce neurotransmitter release in the CNS” and the “production of IL-2” value was “inhibit the production of IL-2”. Further, the rectal blood flow result in experiment [5] is “Positive effects”.
For the compound `O=C(O)c1cc(/N=N/c2ccc(S(=O)(=O)Nc3ccccn3)cc2)ccc1O` [sulfasalazine], the “effectiveness in treatment of acute UC” value in experiment [3] is recorded as “effective to some degree in some patients”.
